This note sets out measurements from patent US12714754B2, “Delivery of cyclic compound by using carrier” (priority 2018, dated 2026).

Series [1] concerns subcutaneous tumor model mice (B×PC3). Kind of series: Antitumor effect on tumor-bearing mice. In kind it is in vivo. The settings on record: 1.5 mg/kg intraperitoneally. How it is done:
A Val-encapsulating polymeric micelle solution prepared by using PEG-P(Asp-BH) (administration amount of Val: 1.5 mg/kg), a valinomycin solution (1.5 mg/kg), or a gemcitabine solution (80 mg/kg) was intravenously administered (only the valinomycin solution was intraperitoneally administered) to the tail vein of subcutaneous tumor model mice (B×PC3) on day 0, day 2, and day 4, and the sizes of the tumors and the body weights of the mice after lapses of various times were measured (n=4).

For a further series, the system named is BxPC3. Kind of series: Toxicity test against cultured cells (CCK-8). Conditions: Homo sapiens, BXPC-3, 48 hours, Val concentration, cell survival by CCK-8. In kind it is cell-based. On the procedure:
(§1) Human pancreatic adenocarcinoma cells (B×PC3 cells, Panc-cells, or MiaPaCa cells) were seeded into a 96-well plate (5,000 cells/well). After 24 hours, a Val-encapsulating polymeric micelle solution prepared by adding 0.3 equivalent of Val to PEG-P(Asp-BH) or Val alone was added at various Val concentrations. After 48 hours, the cells were washed with PBS, and a medium was added. After that, Cell Counting Kit-8 (CCK-8, 10 μL/well) was added to the medium, and 30 minutes later, UV absorbance at 450 nm was measured.

Another series has as its system PANC-1. Put plainly: Toxicity test against cultured cells (CCK-8). In kind it is cell-based. Conditions: Homo sapiens, 48 hours, Val concentration, cell survival by CCK-8. On the procedure: as §1
For a further series, the system named is MiaPaCa. Put plainly: Toxicity test against cultured cells (CCK-8). In kind it is cell-based. The settings on record: Homo sapiens, MIA PaCa-2, 48 hours, Val concentration, cell survival by CCK-8. On the procedure:
as §1

A word on the IC50: it is the concentration at which inhibition is half-maximal. Read a high IC50 as a need for much substance. Consider `CC(C)[C@@H]1NC(=O)[C@H](C)OC(=O)[C@@H](C(C)C)NC(=O)[C@@H](C(C)C)OC(=O)[C@H](C(C)C)NC(=O)[C@H](C)OC(=O)[C@@H](C(C)C)NC(=O)[C@@H](C(C)C)OC(=O)[C@H](C(C)C)NC(=O)[C@H](C)OC(=O)[C@@H](C(C)C)NC(=O)[C@@H](C(C)C)OC1=O` [Val, valinomycin], for which the “death of all the mice, time after the initial administration” value in series [1] was not above 24 h. For the same molecule, the results for the concentration for half-maximal inhibition (IC50) with BxPC3, in the series on PANC-1 and with MiaPaCa were 12.5 nM, 8.3 nM and 23.2 nM, respectively.
